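Grown in 96-well plates, cells were treated for 48 hours with each compound at five concentrations. Insufficient inhibition: endpoint recorded as highest concentration tested. At the GI50, growth is halved. TGI: concentration producing complete growth inhibition.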
Assays:
Assay in all cases: DTP human tumour cell line panel, 48 h
CCRF-CEM leukemia = tested on: CCRF-CEM leukemia
DU-145 prostate = tested on: DU-145 prostate
HOP-62 NSCLC = tested on: HOP-62 NSCLC
HOP-92 NSCLC = tested on: HOP-92 NSCLC
K-562 leukemia = tested on: K-562 leukemia
MCF7 breast = tested on: MCF7 breast
NCI-H23 lung = tested on: NCI-H23 lung
SF-295 CNS = tested on: SF-295 CNS
SK-MEL-2 melanoma = tested on: SK-MEL-2 melanoma
UO-31 renal = tested on: UO-31 renal

Structure (SMILES) | TGI (CCRF-CEM leukemia) [µM] | TGI (DU-145 prostate) [µM] | TGI (HOP-62 NSCLC) [µM] | TGI (HOP-92 NSCLC) [µM] | TGI (K-562 leukemia) [µM] | TGI (MCF7 breast) [µM] | TGI (NCI-H23 lung) [µM] | TGI (SF-295 CNS) [µM] | TGI (SK-MEL-2 melanoma) [µM] | TGI (UO-31 renal) [µM] | GI50 (UO-31 renal) [µM]
CC1(C)C2CCC(N)(C2)C1O (stereo unspecified) | > 100 | > 100 | > 100 | > 100 | > 100 | > 100 | > 100 | > 100 | > 100 | > 100 | –
CN(C)CCn1nc(N)c2nc3cc(C(F)(F)F)ccc3nc21 | > 100 | > 100 | > 100 | > 100 | > 100 | > 100 | > 100 | > 100 | > 100 | > 100 | –
OC(CN1CCCCC1)c1ccc(/C=C/c2ccc(Cl)cc2)cc1 (stereo unspecified) | > 100 | > 100 | > 100 | > 100 | > 100 | > 100 | > 100 | > 100 | 50.9 | > 100 | –
COc1cc2c(cc1OCCCCCOc1cc3c(cc1OC)C(=O)N1CCC[C@H]1CN3)N=C[C@@H]1CCCN1C2=O | 0.592 | > 100 | 31.5 | 75.1 | 17.6 | > 100 | 20.5 | 34 | 11.5 | 30.9 | –
COc1ccccc1NS(=O)(=O)c1ccc2ncn(NS(=O)(=O)c3ccc(Cl)cc3)c(=O)c2c1 | > 100 | > 100 | > 100 | > 100 | > 100 | > 100 | > 100 | > 100 | > 100 | > 100 | –
CC(C)c1cccc(C(C)C)c1OS(=O)(=O)NC(=O)OC(C(F)(F)F)C(F)(F)F | > 100 | > 100 | 91.3 | 59.9 | 66.6 | > 100 | > 100 | 65.3 | > 100 | > 100 | –
CCCC1(N)CC(OC)OC(C)C1O (stereo unspecified) | > 100 | > 100 | > 100 | > 100 | > 100 | > 100 | > 100 | > 100 | > 100 | > 100 | –
CC1=CC(=O)/C(=C/n2c(=S)[nH]c3ccccc32)C(=O)O1 | > 100 | > 100 | > 100 | > 100 | > 100 | > 100 | > 100 | > 100 | > 100 | > 100 | –
CC1CN=C(c2ccc(COc3ccc(C4=NCC(C)N4)cc3)cc2)N1 (stereo unspecified) | > 100 | > 100 | > 100 | > 100 | > 100 | > 100 | > 100 | > 100 | 58.4 | > 100 | –
OC1c2ccccc2C(O)C2OC12 (stereo unspecified) | > 100 | > 100 | > 100 | > 100 | > 100 | > 100 | > 100 | > 100 | > 100 | > 100 | –
C=C1c2nc3ccccc3n2C=C(c2ccc(OC)cc2)N1c1ccc(OCCN2CCOCC2)cc1 | > 86.9 | > 100 | > 100 | > 100 | > 100 | > 100 | > 100 | > 100 | > 52.2 | > 100 | –
CC(=O)N(CN1C(=O)CCC1C(=O)O)c1ccccc1Cl (stereo unspecified) | > 100 | > 100 | > 100 | > 100 | > 100 | > 100 | > 100 | > 100 | > 100 | > 100 | –
CCOC(=O)CC[C@H](N)C(=O)N[C@H](Cc1ccc(N(CCCl)CCCl)cc1)C(=O)OCC | > 100 | 3.77 | 13.6 | 3.24 | > 100 | > 47.5 | 4.29 | 23 | > 28.4 | 0.281 | 0.135
COP(C)(=O)C(Cc1c[nH]c2ccccc12)NC(=O)OCc1ccccc1 (stereo unspecified) | > 100 | > 100 | > 100 | > 100 | > 100 | > 100 | > 100 | > 100 | > 100 | > 100 | –
